Test results taken from paper PMC3740683, “ML212: A small-molecule probe for investigating fluconazole resistance mechanisms in Candida albicans” (Beilstein Journal of Organic Chemistry, 2013).
Converted amounts (≈) assume the structure as drawn. Read-outs that look alike come from different tables or passages of the source.

Tests used:
C. albicans CaCi-2 = assay: Primary screen and dose-response retest: CaCi-2 with 8 µg/mL fluconazole (Alamar Blue growth); assay type: cell-based, Candida albicans; conditions: for IC50: Candida albicans, CACI2
Description: All of the compounds prepared above were evaluated for their ability to chemosensitize the C. albicans test strains CaCi-2 and CaCi-8 towards fluconazole. […] The DMSO/fluconazole combination served as an internal control.
Protocols for cellular assays
Primary screen and dose-response retest: CaCi-2 with 8 µg/mL fluconazole […]
Clear, flat-bottom, black, 384-well plates (Corning Catalog no. 3712BC; Lot no. […]
DMSO; Fluconazole (Sequoia Research Products Ltd) 2 mg/mL stock solution in PBS; […]
(AG Scientific Catalog no. DAL 1100; Lot no.151016SA); PBS without calcium and magnesium (Cellgro Catalog no. 21-040-CV)
(§1) Synthetic defined growth medium
(§2) RPMI 1640 medium, (powder without sodium bicarbonate; Invitrogen Catalog no. […]
no. 028KO760); Glucose 40% (w/v) in water (Sigma Catalog no. G-5400); MOPS buffer […]
1) Prepare 1× RPMI medium by dissolving 10.4 grams powdered medium in 800 […]
(§3) 2) Add 34.52 g MOPS. While stirring, adjust pH to 7.0 with 10 N NaOH.
(§4) 3) Add 10 mL uridine solution, 50 mL glucose solution, adjust final volume to 1000 […]
Test Strain: C. albicans CaCi-2
1) Inoculate 500 µL of strain from cryopreserved stock into a 250 mL shaker flask containing 30 mL growth medium. Shake at 30 °C overnight.
2) Read OD 600 of 1 mL fungal culture in a cuvette using a standard optical density reader (Eppendorf BioPhotometer Plus), with growth medium as a background […]
3) Dilute to desired volume of fungal inoculums according to the following formula:
(1/OD measured) × (desired final volume of inoculum) × 0.3 = volume of fungal culture (µL) to add to desired volume of growth medium. When added to media in wells, this yields a calculated starting OD of the fungal inoculum of 0.00015.
1) Add fluconazole stock solution to fungal inoculum to achieve a final concentration […]
2) Add Pen/Strep at 0.1 mL per 10 mL media (1% v/v).
3) Use a Thermo Combi nL to dispense 20 µL/well of assay media into all wells.
4) Pin 25 nL test compound from compound plates into assay plates using CyBi- […]
5) Dispense 20 µL/well of culture into the assay media in all wells.
6) Incubate plates in a humidified (90% humidity) Liconic incubator at 37 °C without […]
7) Dilute Alamar Blue Reagent 1:40 in Ca/Mg-free PBS.
8) To all plates, add 5 µL/well of the diluted Alamar to a final dilution factor of 1:200.
9) Incubate the plates for an additional 2 hours.
10) Read the relative fluorescence intensity (RFU) of wells on a standard plate reader as a measure of relative fungal growth. EnVision (Perkin Elmer) plate reader setup: Ex 544 nm, Em 590 nm, bandwidth 12 nm, top read. […]

C. albicans CaCi-8 = assay: Secondary assay 1: CaCi-8 with 8 µg/mL fluconazole (Alamar Blue growth); assay type: cell-based, Candida albicans; conditions: for IC50: Candida albicans; for CaCi-8 IC50: 37 °C, 48 hours, with test compound and 8 µg/mL (26 µM) fluconazole, average of at least three independent experiments in duplicate, inactive = negligible activity at concentrations below 26 µM
Description: All of the compounds prepared above were evaluated for their ability to chemosensitize the C. albicans test strains CaCi-2 and CaCi-8 towards fluconazole. […] The DMSO/fluconazole combination served as an internal control. […]
(1/OD measured) × (desired final volume of inoculum) × 0.3 = volume of fungal culture (µL) to add to desired volume of growth medium. When added to media in wells, this yields a calculated starting OD of the fungal inoculum of 0.00015. […]
3) Use a Thermo Combi nL to dispense 20 µL/well of assay media into all wells. […]
EnVision (Perkin Elmer) plate reader setup: Ex 544 nm, Em 590 nm, bandwidth 12 nm, top read.
Secondary assay 1: CaCi-8 with 8 µg/mL fluconazole […]
35808016); geldanamycin (AG Scientific Catalog no. […]
PBS w/o calcium and magnesium (Cellgro Catalog no. 21-040-CV)
as §1, §2
no. 028K0760); glucose 40% (w/v) in water (Sigma Catalog no. G-5400); MOPS buffer […]
1) Prepare 1× RPMI medium by dissolving 10.4 g powdered medium in 800 mL […]
as §3, §4
Test strain: C. albicans CaCi-8
1) Inoculate 500 µL of strain from cryopreserved stock into a 250 mL shaker flask containing 30 mL growth medium. Shake at 30 °C overnight (16 hours).
2) Read OD 600 of 1 mL of fungal culture in a cuvette using a standard optical density reader (Eppendorf BioPhotometer Plus), with growth medium as a […]
3) Dilute to a desired volume of fungal inoculum according to following formula: […]
1) Add fluconazole stock solution to fungal inoculum to achieve 8 µg/mL.
2) Add Pen/Strep to media to 1% concentration.
4) Dispense geldanamycin in positive control wells using Thermo Combi nL for a final concentration of 3 µM.
5) Then, pin 100 nL of test compound from compound plates into assay plates using a CyBi-Well pin tool.
6) Dispense 20 µL/well of culture into the assay media in all wells.
7) Incubate the plates in a humidified (90% humidity) Liconic incubator at 37 °C without agitation for 48 hours.
8) Dilute Alamar Blue 1:40 in Ca/Mg-free PBS.
9) To all plates, add 5 µL/well of the diluted Alamar Blue to plates to a final dilution […]
10) Incubate the plates for 2 hours. […]

[1] = Secondary assay 3: fibroblast toxicity; assay type: cell-based; conditions: mouse, NIH-3T3 fibroblasts, murine 3T3 fibroblasts
Description: 11) Read relative fluorescence intensity (RFU) of wells on a standard plate reader as […]
measure of relative fungal growth. EnVision (Perkin Elmer) plate reader settings: […]
Secondary assay 3: fibroblast toxicity
Clear, flat-bottom, black, 384-well plates (Corning Catalog no. 3712BC Lot no.
35808016); geldanamycin (AG Scientific Catalog no. G-1047) 15 mM stock solution in […]
DMSO; fluconazole (Sequoia Research Ltd.) 2 mg/mL stock solution in PBS; Alamar […]
Blue (AG Scientific Catalog no. DAL1100, Lot no. 151016SA); PBS w/o calcium and […]
magnesium (Cellgro Catalog no. 21-040-CV)
Optimem medium (Invitrogen Catalog no. 31985-070; Lot no. 548536); 2.5% (v/v) fetal […]
bovine serum (Hyclone Catalog no.30071.03; Lot no. ARF26748); 1% (v/v) Pen/Strep […]
Test strain: NIH-3T3 mammalian fibroblasts (ATCC CRL No. 1658) […]
1) Plate cells in 384-well plates at 6,000 cells/well in 20 µL assay medium.
2) Incubate plates overnight at 37 °C under 5% CO2.
1) After overnight culture, pin compounds into wells at 100 nL/well using the CyBio […]
CyBi-Well pinning instrument.
2) After pinning compounds, add 20 µL of assay medium supplemented with […]
fluconazole to each well. […]
6) Read the relative fluorescence intensity (RFU) of wells on a standard plate reader as a measure of relative cell growth. EnVision (Perkin Elmer) plate reader […]
setup: Ex 544 nm, Em […], bandwidth12 nm, top read.

Solubility in PBS = assay type: physicochemical; conditions: aqueous buffer
CaCi-2 = test system: CaCi-2; set-up: method as in PMID 8161633; conditions: CaCi-2 clinical isolate; cited from earlier work
CaCi-8 = test system: CaCi-8; set-up: method as in PMID 8161633; conditions: CaCi-8 clinical isolate; cited from earlier work
[2] = 37 °C, 48 hours, with test compound and 8 µg/mL (26 µM) fluconazole, average of at least three independent experiments in duplicate, inactive = negligible activity at concentrations below 26 µM
[3] = CACI8, 48 h, read-out: CaCi-8 IC50

| SMILES | IC50 (C. albicans CaCi-2; [2]) [µM] | IC50 (C. albicans CaCi-8; [3]) [µM] | CaCi-8 IC50 (C. albicans CaCi-8) | CaCi-2 IC50 (C. albicans CaCi-2; [2]) | further results |
| --- | --- | --- | --- | --- | --- |
| COC(=O)Cn1nc(-c2ccccc2)c2ccccc21 [Compound 1] | 2.2 ± 1 | 3.5 ± 1.9 |  |  | IC50 (C. albicans CaCi-2; commercial sample, hit revalidation, with 8 µg/mL fluconazole): 0.8 µM; IC50 (C. albicans CaCi-8; CACI8, read-out: CaCi-8 IC50): 2.3 µM; IC50 at 48 h [1]: > 26 µM; solubility (Solubility in PBS): 79 µM (≈ 21 µg/mL) |
| COC(=O)Cn1nc(-c2ccccc2)c2cc(C)ccc21 [Compound 11] | 5.2 ± 2.2 | 8.2 ± 3.2 |  |  |  |
| COC(=O)Cn1nc(-c2ccccc2)c2cc(OC)ccc21 [Compound 12] | 14.9 ± 5.7 | 22.1 ± 6.2 |  |  |  |
| COC(=O)Cn1nc(-c2ccccc2)c2cc(F)ccc21 [Compound 13] | 11.2 ± 7.2 |  | inactive |  |  |
| COC(=O)Cn1nc(-c2ccccc2)c2cc(Cl)ccc21 [Compound 14] |  |  | inactive | inactive |  |
| COC(=O)Cn1nc(-c2ccccc2)c2ccc(C)cc21 [Compound 15] | 5.9 ± 3.1 |  | inactive |  |  |
| COC(=O)Cn1nc(-c2ccccc2)c2ccc(OC)cc21 [Compound 16] | 9.5 ± 2.5 | 12.4 ± 0.5 |  |  |  |
| COC(=O)Cn1nc(-c2ccccc2)c2ccc(Cl)cc21 [Compound 17] | 4 ± 1.3 | 8.4 ± 0.5 |  |  |  |
| COC(=O)Cn1nc(-c2ccccc2)c2ccc(C(F)(F)F)cc21 [Compound 18] |  |  | inactive | inactive |  |
| COC(=O)Cn1nc(-c2ccccc2)c2cccc(C(F)(F)F)c21 [Compound 19] |  |  | inactive | inactive |  |
| COC(=O)Cn1nc(-c2ccccc2)c2cccnc21 [Compound 20] |  |  | inactive | inactive |  |
| COC(=O)Cn1ncc2ccccc21 [Compound 21] |  |  | inactive | inactive |  |
| CCc1nn(CC(=O)OC)c2ccccc12 [Compound 22] |  |  | inactive | inactive |  |
| COC(=O)Cn1nc(C(C)(C)C)c2ccccc21 [Compound 23] |  |  | inactive | inactive |  |
| COC(=O)Cn1nc(C2CC2)c2ccccc21 [Compound 24] |  |  | inactive | inactive |  |
| COC(=O)Cn1nc(C2CCCCC2)c2ccccc21 [Compound 25] | 2.3 ± 0.3 | 6 ± 1.7 |  |  |  |

| SMILES | IC50 (C. albicans CaCi-2; [2]) [µM] | IC50 (C. albicans CaCi-8; [3]) [µM] | CaCi-8 IC50 (C. albicans CaCi-8) | CaCi-2 IC50 (C. albicans CaCi-2; [2]) | further results |
| --- | --- | --- | --- | --- | --- |
| COC(=O)Cn1nc(-c2cccnc2)c2ccccc21 [Compound 26] |  |  | inactive | inactive |  |
| COC(=O)Cn1nc(-c2cncnc2)c2ccccc21 [Compound 27] |  | 21.1 ± 3.3 |  | inactive |  |
| COC(=O)Cn1nc(-c2cnco2)c2ccccc21 [Compound 28] |  |  | inactive | inactive |  |
| COC(=O)Cn1nc(-c2cscn2)c2ccccc21 [Compound 29] | 12.9 ± 1.7 |  | inactive |  |  |
| COC(=O)Cn1nc(-c2ccc(C)cc2)c2ccccc21 [Compound 30] | 4.8 ± 2.5 | 19.5 ± 14.2 |  |  |  |
| COC(=O)Cn1nc(-c2ccc(OC)cc2)c2ccccc21 [Compound 31] | 4.2 ± 1.7 | 14.1 ± 6.4 |  |  |  |
| COC(=O)Cn1nc(-c2ccc(F)cc2)c2ccccc21 [Compound 32] | 8.3 ± 2.8 | 12.3 ± 3.9 |  |  |  |
| COC(=O)Cn1nc(-c2ccc(C(F)(F)F)cc2)c2ccccc21 [Compound 33] | > 26 |  | inactive | inactive |  |
| COC(=O)Cn1nc(-c2ccc(C#N)cc2)c2ccccc21 [Compound 34] | > 26 | 20.5 ± 0.3 |  | inactive |  |
| COC(=O)Cn1nc(-c2cccc(C)c2)c2ccccc21 [Compound 35] | 1.1 ± 0.6 | 1.9 ± 0.9 |  |  |  |
| COC(=O)Cn1nc(-c2cccc(N(C)C)c2)c2ccccc21 [Compound 37] | 0.8 ± 0.1 | 2 ± 0.2 |  |  |  |
| COC(=O)Cn1nc(-c2cccc(F)c2)c2ccccc21 [Compound 38] | 1.7 ± 0.4 | 4.2 ± 4.1 |  |  |  |
| COC(=O)Cn1nc(-c2ccccc2C)c2ccccc21 [Compound 39] | 5.3 ± 0.5 | 7.8 ± 2.6 |  |  |  |
| COC(=O)Cn1nc(-c2ccccc2OC)c2ccccc21 [Compound 40] | 9.3 ± 3.6 | 11.4 ± 1.7 |  |  |  |
| COC(=O)Cn1nc(-c2cc(OC)cc(OC)c2)c2ccccc21 [Compound 41] |  |  | inactive | inactive |  |
| OC(Cn1cncn1)(Cn1cncn1)c1ccc(F)cc1F [fluconazole] |  |  |  |  | minimum inhibitory concentration (MIC) (CaCi-2): 2 µg/mL (≈ 6.53 µM); minimum inhibitory concentration (MIC) (CaCi-8): 8 µg/mL (≈ 26.1 µM) |
